Measured values taken from PMC7762994 (Viruses, 2020).
Like-named read-outs stand apart in the source and are kept apart here.

How the values were obtained:
[1] = test system: Hazara virus (HAZV); assay: microbe, parasite or virus in culture; assay type: cell-based; conditions: SW13, 24 h
[2] = test system: Hazara virus (HAZV); assay: microbe, parasite or virus in culture; assay type: cell-based; conditions: Hazara virus
[3] = molecular target: T1, host proteins (proteome-wide) (Homo sapiens, UniProt A0AVT1); assay: 2D-TPP in U87 cells (proteome-wide); assay type: binding; conditions: protein A0AVT1 (UBA6)
T1 construct: endogenous in cells; host or cells: U87 cells
T1 sequence (A0AVT1 1-1052): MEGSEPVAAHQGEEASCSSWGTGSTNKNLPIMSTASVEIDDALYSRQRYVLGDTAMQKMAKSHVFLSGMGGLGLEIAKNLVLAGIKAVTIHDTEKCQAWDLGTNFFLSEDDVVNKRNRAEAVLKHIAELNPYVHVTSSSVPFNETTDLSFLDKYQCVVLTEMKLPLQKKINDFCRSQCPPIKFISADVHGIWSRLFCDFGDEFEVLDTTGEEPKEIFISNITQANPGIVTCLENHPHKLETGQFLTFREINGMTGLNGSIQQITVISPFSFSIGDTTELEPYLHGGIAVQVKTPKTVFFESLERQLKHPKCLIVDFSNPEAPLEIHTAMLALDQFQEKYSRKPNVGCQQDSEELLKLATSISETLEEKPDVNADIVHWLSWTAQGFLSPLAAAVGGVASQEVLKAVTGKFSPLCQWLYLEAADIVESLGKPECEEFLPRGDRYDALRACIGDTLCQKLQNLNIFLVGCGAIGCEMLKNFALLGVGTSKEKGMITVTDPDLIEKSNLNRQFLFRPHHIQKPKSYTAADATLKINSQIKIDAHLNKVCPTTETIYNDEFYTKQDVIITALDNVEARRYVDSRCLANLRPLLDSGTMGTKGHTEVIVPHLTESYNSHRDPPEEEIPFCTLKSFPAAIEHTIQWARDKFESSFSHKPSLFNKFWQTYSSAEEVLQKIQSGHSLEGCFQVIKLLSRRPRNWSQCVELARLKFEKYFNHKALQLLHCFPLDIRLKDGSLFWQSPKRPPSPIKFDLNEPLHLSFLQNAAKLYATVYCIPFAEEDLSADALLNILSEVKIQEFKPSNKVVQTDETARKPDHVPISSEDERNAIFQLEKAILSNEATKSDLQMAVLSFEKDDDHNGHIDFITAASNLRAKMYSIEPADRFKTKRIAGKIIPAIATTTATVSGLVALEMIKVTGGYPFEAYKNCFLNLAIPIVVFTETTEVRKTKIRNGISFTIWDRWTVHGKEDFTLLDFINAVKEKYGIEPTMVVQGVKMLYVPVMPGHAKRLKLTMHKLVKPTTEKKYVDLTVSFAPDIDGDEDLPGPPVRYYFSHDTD

[4] = molecular target: T2, host proteins (proteome-wide) (Homo sapiens, UniProt A0FGR8); assay: 2D-TPP in U87 cells (proteome-wide); assay type: binding
T2 sequence (A0FGR8 1-921): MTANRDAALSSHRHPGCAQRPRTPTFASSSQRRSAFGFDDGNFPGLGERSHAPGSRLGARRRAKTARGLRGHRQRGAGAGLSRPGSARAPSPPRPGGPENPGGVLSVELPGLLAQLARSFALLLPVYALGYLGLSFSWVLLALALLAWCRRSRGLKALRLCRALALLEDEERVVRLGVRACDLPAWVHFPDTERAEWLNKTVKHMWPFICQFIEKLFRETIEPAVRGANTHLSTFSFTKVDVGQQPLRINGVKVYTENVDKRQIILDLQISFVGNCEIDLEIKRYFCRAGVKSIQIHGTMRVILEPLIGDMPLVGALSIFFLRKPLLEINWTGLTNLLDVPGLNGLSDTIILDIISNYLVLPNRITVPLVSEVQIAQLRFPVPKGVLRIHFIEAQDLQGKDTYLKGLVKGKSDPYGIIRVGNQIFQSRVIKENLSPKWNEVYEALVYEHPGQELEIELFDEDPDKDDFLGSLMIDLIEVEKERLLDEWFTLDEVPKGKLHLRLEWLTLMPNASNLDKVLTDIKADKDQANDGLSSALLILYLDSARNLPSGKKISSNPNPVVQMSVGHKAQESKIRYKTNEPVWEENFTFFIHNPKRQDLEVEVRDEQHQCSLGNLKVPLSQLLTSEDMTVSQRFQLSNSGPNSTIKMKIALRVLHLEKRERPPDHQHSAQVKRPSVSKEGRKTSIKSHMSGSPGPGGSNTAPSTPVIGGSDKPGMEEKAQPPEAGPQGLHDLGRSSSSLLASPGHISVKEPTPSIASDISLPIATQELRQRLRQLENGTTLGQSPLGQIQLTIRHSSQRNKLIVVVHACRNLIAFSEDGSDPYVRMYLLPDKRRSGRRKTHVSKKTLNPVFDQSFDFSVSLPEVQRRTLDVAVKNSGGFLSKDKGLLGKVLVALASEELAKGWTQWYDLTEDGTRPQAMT

[5] = test system: host proteins (proteome-wide); assay: 2D-TPP in U87 cells (proteome-wide); assay type: binding, Homo sapiens; conditions: protein A0A087WUL8 (NBPF19¦NBPF26¦NBPF1¦NBPF20¦NBPF8¦NBPF12¦NBPF14)
[6] = molecular target: T3, DNAJC13 (Homo sapiens, UniProt O75165); assay: 2D-TPP in U87 cells; assay type: binding; conditions: 1.5 h, stabilized, read-out: pEC50 of protein stabilization, DNAJC13 (converted)
T3 construct: endogenous in cells; host or cells: U87 cells

[7] = molecular target: HARS2 (Homo sapiens, UniProt P49590); assay: TPP-TR in HAZV-infected SW13 cells; conditions: read-out: ΔTm of HARS2
[8] = molecular target: EDEM3 (Homo sapiens, UniProt Q9BZQ6); assay: TPP-TR in HAZV-infected SW13 cells; conditions: 20 μM, 4 h
Sequence of EDEM3 (Q9BZQ6 42-932): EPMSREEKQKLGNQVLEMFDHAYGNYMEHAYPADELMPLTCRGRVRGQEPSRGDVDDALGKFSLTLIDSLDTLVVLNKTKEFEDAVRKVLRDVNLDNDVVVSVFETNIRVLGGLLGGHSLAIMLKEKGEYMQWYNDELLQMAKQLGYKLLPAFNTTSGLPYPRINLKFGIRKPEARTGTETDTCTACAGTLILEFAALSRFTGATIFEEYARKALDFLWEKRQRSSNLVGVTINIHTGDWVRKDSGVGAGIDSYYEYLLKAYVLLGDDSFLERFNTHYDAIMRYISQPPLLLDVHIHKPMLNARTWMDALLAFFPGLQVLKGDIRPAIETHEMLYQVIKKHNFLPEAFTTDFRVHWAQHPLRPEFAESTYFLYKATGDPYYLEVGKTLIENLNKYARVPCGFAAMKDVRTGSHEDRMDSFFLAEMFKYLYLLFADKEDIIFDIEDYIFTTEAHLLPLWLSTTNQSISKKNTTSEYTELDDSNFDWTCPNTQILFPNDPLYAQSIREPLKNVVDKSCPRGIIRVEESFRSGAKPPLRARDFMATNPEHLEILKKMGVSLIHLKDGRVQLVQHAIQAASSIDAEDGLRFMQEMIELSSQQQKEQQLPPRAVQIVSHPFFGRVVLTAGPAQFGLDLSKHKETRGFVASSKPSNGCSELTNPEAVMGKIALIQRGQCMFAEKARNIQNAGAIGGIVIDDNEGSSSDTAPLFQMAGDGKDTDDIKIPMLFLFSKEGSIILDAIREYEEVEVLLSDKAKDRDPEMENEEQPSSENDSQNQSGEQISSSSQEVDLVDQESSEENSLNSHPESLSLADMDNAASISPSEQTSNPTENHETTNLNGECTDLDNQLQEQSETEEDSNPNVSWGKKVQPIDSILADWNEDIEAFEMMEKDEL

Sequence of HARS2 (P49590 34-506): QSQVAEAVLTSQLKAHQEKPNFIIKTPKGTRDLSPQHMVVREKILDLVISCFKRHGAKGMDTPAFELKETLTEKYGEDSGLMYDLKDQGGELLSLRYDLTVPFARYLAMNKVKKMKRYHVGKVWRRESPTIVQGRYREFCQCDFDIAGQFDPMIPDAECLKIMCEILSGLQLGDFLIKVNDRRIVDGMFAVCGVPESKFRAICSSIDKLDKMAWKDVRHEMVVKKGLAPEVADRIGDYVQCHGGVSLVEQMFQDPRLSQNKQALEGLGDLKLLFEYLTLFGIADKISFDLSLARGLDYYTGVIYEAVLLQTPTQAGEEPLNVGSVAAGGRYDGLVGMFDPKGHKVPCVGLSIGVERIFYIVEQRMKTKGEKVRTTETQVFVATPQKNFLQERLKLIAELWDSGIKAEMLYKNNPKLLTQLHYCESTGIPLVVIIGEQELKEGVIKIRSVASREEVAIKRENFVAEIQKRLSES
T3 sequence (O75165 whole entry): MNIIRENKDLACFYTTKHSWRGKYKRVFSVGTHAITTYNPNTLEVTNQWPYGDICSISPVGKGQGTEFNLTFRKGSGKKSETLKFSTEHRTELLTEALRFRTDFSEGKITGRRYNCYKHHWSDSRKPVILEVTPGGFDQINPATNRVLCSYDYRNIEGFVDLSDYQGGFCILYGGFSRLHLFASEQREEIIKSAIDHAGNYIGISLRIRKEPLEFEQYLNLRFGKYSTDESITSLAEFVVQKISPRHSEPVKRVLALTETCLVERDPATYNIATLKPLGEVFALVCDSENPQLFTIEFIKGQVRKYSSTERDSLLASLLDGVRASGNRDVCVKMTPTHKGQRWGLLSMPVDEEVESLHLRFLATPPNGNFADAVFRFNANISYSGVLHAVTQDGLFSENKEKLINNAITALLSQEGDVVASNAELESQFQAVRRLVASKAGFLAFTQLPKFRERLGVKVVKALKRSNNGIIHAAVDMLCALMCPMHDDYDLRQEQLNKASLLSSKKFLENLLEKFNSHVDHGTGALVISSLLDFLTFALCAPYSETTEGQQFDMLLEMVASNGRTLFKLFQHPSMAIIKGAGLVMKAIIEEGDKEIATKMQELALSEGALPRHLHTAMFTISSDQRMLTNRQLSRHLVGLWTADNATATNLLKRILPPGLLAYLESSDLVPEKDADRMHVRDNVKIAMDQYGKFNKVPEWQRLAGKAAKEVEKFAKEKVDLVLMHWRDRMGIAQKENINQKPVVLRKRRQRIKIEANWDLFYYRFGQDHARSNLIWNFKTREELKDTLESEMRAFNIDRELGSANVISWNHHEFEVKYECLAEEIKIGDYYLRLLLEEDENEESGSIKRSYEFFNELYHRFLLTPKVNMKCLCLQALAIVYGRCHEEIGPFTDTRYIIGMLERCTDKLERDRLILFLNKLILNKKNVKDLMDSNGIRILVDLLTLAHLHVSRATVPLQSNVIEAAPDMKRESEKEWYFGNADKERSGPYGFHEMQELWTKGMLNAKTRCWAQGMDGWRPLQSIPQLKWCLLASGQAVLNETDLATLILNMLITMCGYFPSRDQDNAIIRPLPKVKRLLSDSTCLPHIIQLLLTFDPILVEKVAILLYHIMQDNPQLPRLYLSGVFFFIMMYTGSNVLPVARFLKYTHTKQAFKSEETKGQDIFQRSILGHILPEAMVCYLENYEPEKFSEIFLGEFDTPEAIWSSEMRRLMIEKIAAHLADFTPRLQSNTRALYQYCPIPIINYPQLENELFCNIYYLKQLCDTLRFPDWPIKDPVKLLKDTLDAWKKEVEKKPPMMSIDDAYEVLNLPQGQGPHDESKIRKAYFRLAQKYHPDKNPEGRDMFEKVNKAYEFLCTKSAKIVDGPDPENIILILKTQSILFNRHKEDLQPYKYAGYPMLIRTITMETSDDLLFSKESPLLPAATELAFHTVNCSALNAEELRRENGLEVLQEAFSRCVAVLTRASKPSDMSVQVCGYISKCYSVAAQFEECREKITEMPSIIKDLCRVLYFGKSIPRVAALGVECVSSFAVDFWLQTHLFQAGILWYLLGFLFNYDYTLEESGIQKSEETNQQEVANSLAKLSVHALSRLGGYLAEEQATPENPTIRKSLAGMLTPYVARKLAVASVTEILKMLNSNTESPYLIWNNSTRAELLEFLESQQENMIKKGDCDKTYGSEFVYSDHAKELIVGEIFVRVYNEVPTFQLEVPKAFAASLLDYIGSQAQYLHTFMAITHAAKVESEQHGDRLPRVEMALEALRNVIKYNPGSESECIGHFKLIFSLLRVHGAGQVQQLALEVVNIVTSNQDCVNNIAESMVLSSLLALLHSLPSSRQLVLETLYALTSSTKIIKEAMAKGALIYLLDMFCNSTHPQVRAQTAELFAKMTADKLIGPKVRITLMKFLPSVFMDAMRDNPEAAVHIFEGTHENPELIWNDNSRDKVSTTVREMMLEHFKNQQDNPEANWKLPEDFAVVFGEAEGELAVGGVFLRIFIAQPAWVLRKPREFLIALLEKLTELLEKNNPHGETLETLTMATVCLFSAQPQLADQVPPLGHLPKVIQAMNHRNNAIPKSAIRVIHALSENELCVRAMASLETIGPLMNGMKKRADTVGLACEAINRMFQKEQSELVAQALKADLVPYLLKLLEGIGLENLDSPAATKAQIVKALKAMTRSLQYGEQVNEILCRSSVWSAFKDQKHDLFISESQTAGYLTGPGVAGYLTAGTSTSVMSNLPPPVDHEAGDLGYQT

CCOC(=O)c1cnn(-c2cccc3c2[nH]c(=O)n3C2CCN(C(=O)Nc3ccc(I)cc3)CC2)c1 [TH6744, ethyl 1-(1-(1-((4-iodophenyl)carbamoyl)piperidin-4-yl)-2-oxo-2,3-dihydro-1H-benzo[d]imidazol-4-yl)-1H-pyrazole-4-carboxylate]
IC50 ([1]; read-out: Antiviral on primary infection IC50 [µM]): 10.9 µM | EC50 ([1]; read-out: EC50 Infected cells (primary infection)): 10900 nM | inhibition at 10 µM ([1]; read-out: Viral inhibition on primary infection (%)): 85% | IC50 ([2]; SW13, 24 h, read-out: Antiviral on titer (µM) IC50 [µM]): 2.9 µM | EC50 ([2]; SW13, read-out: EC50 Viral titer): 2900 nM | inhibition at 10 µM ([2]; Vero, 24 h, read-out: Viral inhibition on titer (%)): 90% | EC50 ([3]; temperature 51, Set2): 890 nM | norm_rel_fc_protein_1_unmodified ([3]; temperature 51, dose 1, Set2): 1.349 | norm_rel_fc_protein_3_unmodified ([3]; temperature 51, dose 3, Set2): 1.572 | norm_rel_fc_protein_10_unmodified ([3]; temperature 51, dose 10, Set2): 1.5768 | norm_rel_fc_protein_30_unmodified ([3]; temperature 51, dose 30, Set2): 1.557 | pec50 ([4]; protein A0FGR8 (ESYT2), temperature 54, Set2): 5.517 | norm_rel_fc_protein_1_unmodified ([4]; protein A0FGR8 (ESYT2), temperature 54, dose 1, Set2): 0.9139 | norm_rel_fc_protein_3_unmodified ([4]; protein A0FGR8 (ESYT2), temperature 54, dose 3, Set2): 0.7618 | norm_rel_fc_protein_10_unmodified ([4]; protein A0FGR8 (ESYT2), temperature 54, dose 10, Set2): 0.587 | norm_rel_fc_protein_30_unmodified ([4]; protein A0FGR8 (ESYT2), temperature 54, dose 30, Set2): 0.5111 | pec50 ([4]; protein A0FGR8 (ESYT2), temperature 57, Set2): 5.71 | norm_rel_fc_protein_1_unmodified ([4]; protein A0FGR8 (ESYT2), temperature 57, dose 1, Set2): 0.8819 | norm_rel_fc_protein_3_unmodified ([4]; protein A0FGR8 (ESYT2), temperature 57, dose 3, Set2): 0.7127 | norm_rel_fc_protein_10_unmodified ([4]; protein A0FGR8 (ESYT2), temperature 57, dose 10, Set2): 0.531 | norm_rel_fc_protein_30_unmodified ([4]; protein A0FGR8 (ESYT2), temperature 57, dose 30, Set2): 0.5493 | pec50 ([4]; protein A0FGR8-2 (ESYT2), temperature 54, Set2): 5.517 | norm_rel_fc_protein_1_unmodified ([4]; protein A0FGR8-2 (ESYT2), temperature 54, dose 1, Set2): 0.9139 | norm_rel_fc_protein_3_unmodified ([4]; protein A0FGR8-2 (ESYT2), temperature 54, dose 3, Set2): 0.7618 | norm_rel_fc_protein_10_unmodified ([4]; protein A0FGR8-2 (ESYT2), temperature 54, dose 10, Set2): 0.587 | norm_rel_fc_protein_30_unmodified ([4]; protein A0FGR8-2 (ESYT2), temperature 54, dose 30, Set2): 0.5111 | pec50 ([5]; temperature 45, Set1): 5.615 | norm_rel_fc_protein_1_unmodified ([5]; temperature 45, dose 1, Set1): 0.9697 | norm_rel_fc_protein_3_unmodified ([5]; temperature 45, dose 3, Set1): 0.761 | norm_rel_fc_protein_10_unmodified ([5]; temperature 45, dose 10, Set1): 0.63 | norm_rel_fc_protein_30_unmodified ([5]; temperature 45, dose 30, Set1): 0.6272 | EC50 [6]: 1000 nM | ΔTm at 20 µM [7]: -9.2 °C | thermal stability change of EDEM3 [8]: stabilized
